# Results published in paper PMC5965259 (Journal of medicinal chemistry, 2018).
# System: bloodstream form T. brucei Lister 427
# Test: ATP–bioluminescence-based bloodstream form T. brucei cell viability assay
# Conditions: Trypanosoma brucei, 48 h, read-out: Tb427 EC50
row,Structure (SMILES),EC50 [µM]
1,CCc1cc(Nc2cc(Cl)cc(Cl)c2)nc(N)n1 [Compound 9],4.7
2,CC(C)c1cc(Nc2cc(Cl)cc(Cl)c2)nc(N)n1 [Compound 10],4.7
3,Nc1nc(Nc2cc(Cl)cc(Cl)c2)cc(-c2ccccc2)n1 [Compound 11],7.2
4,Nc1nc(Nc2cc(Cl)cc(Cl)c2)cc(N2CCOCC2)n1 [Compound 12],13
5,Nc1nc(Nc2cc(Cl)cc(Cl)c2)cc(C(F)(F)F)n1 [Compound 14],10
6,Nc1nc2c(c(Nc3cc(Cl)cc(Cl)c3)n1)CCC2 [Compound 15],19
7,Cc1nc(N)nc(Nc2cc(Cl)cc(Cl)c2)c1C [Compound 16],17
8,Nc1cccc(Nc2cc(Cl)cc(Cl)c2)n1 [Compound 17],96
9,"Nc1ccnc(Nc2cc(Cl)cc(Cl)c2)c1 [Compound 18, N^2-(3,5-Dichlorophenyl)pyridine-2,4-diamine]",38
10,"Cc1cc(N)cc(Nc2cc(Cl)cc(Cl)c2)n1 [Compound 19, N^2-(3,5-Dichlorophenyl)-6-methylpyridine-2,4-diamine]",13
11,"Cc1cc(Nc2cc(Cl)cc(Cl)c2)cc(N)n1 [Compound 20, N^4-(3,5-Dichlorophenyl)-6-methylpyridine-2,4-diamine]",2.2
12,"Nc1cnccc1Nc1cc(Cl)cc(Cl)c1 [Compound 22, N^4-(3,5-Dichlorophenyl)pyridine-3,4-diamine]",18
13,"CNc1nc(C)cc(Nc2cc(Cl)cc(Cl)c2)n1 [Compound 24, N^4-(3,5-Dichlorophenyl)-N^2,6-dimethylpyrimidine-2,4-diamine]",2.7
14,"Cc1cc(Nc2cc(Cl)cc(Cl)c2)nc(N(C)C)n1 [Compound 25, N^4-(3,5-Dichlorophenyl)-N^2,N^2,6-trimethylpyrimidine-2,4-diamine]",14
15,"Nc1cc(Nc2cc(Cl)cc(Cl)c2)nc(N)n1 [Compound 26, N^4-(3,5-Dichlorophenyl)pyrimidine-2,4,6-triamine]",14
16,"Cc1nc(N)cc(Nc2cc(Cl)cc(Br)c2)n1 [Compound 27, N^4-(3-Bromo-5-chlorophenyl)-2-methylpyrimidine-4,6-diamine]",20
17,"Cc1cc(N(C)c2cc(Cl)cc(Cl)c2)nc(N)n1 [Compound 28, N^4-(3,5-Dichlorophenyl)-N^4,6-dimethylpyrimidine-2,4-diamine]",38
18,"Cc1cc(Sc2cc(Cl)cc(Cl)c2)nc(N)n1 [Compound 29, 4-((3,5-Dichlorophenyl)thio)-6-methylpyrimidin-2-amine]",> 25
19,"Cc1cc(NCc2cc(Cl)cc(Cl)c2)nc(N)n1 [Compound 30, N^4-(3,5-Dichlorobenzyl)-6-methylpyrimidine-2,4-diamine]",11
20,"Cc1cc(NCCc2cc(Cl)cc(Cl)c2)nc(N)n1 [Compound 31, N^4-(3,5-Dichlorophenethyl)-6-methylpyrimidine-2,4-diamine]",5.7

row,Structure (SMILES),EC50 [µM]
1,"Cc1cc(Nc2cc(Cl)cc(Br)c2)nc(N)n1 [Compound 32, N^4-(3-Bromo-5-chlorophenyl)-6-methylpyrimidine-2,4-diamine]",4.7
2,"Cc1cc(Nc2cc(Cl)cc(C#N)c2)nc(N)n1 [Compound 33, 3-((2-Amino-6-methylpyrimidin-4-yl)amino)-5-chlorobenzonitrile]",12
3,"Cc1cc(Nc2cc(Cl)cc(C(F)(F)F)c2)nc(N)n1 [Compound 34, N^4-(3-Chloro-5-(trifluoromethyl)phenyl)-6-methylpyrimidine-2,4-diamine]",13
4,"Cc1cc(Nc2cc(Cl)cc(-c3ccccc3)c2)nc(N)n1 [Compound 35, N^4-(5-Chloro-[1,1′-biphenyl]-3-yl)-6-methylpyrimidine-2,4-diamine]",4.5
5,"Cc1cc(Nc2cc(Cl)cc(S(F)(F)(F)(F)F)c2)nc(N)n1 [Compound 36, N^4-(3-Chloro-5-(pentafluoro-λ^6-sulfaneyl)phenyl)-6-methylpyrimidine-2,4-diamine]",13
6,"Cc1cc(Nc2cc(Br)cc(S(F)(F)(F)(F)F)c2)nc(N)n1 [Compound 37, N^4-(3-Bromo-5-(pentafluoro-λ^6-sulfaneyl)phenyl)-6-methylpyrimidine-2,4-diamine]",0.45
7,"CCc1cc(Br)cc(Nc2cc(C)nc(N)n2)c1 [Compound 38, N^4-(3-Bromo-5-ethylphenyl)-6-methylpyrimidine-2,4-diamine]",5.5
8,"CCOc1cc(Br)cc(Nc2cc(C)nc(N)n2)c1 [Compound 39, N^4-(3-Bromo-5-ethoxyphenyl)-6-methylpyrimidine-2,4-diamine]",4.4
9,"Cc1cc(Nc2cc(Br)cc(OCC(F)(F)F)c2)nc(N)n1 [Compound 40, N^4-(3-Bromo-5-(2,2,2-trifluoroethoxy)phenyl)-6-methylpyrimidine-2,4-diamine]",4.2
10,"C=CCOc1cc(Br)cc(Nc2cc(C)nc(N)n2)c1 [Compound 41, N^4-(3-(Allyloxy)-5-bromophenyl)-6-methylpyrimidine-2,4-diamine]",4.4
11,"CCCCOc1cc(Br)cc(Nc2cc(C)nc(N)n2)c1 [Compound 42, N^4-(3-Bromo-5-butoxyphenyl)-6-methylpyrimidine-2,4-diamine]",1.9
12,"Cc1cc(Nc2cc(Br)cc(OCC(C)C)c2)nc(N)n1 [Compound 43, N^4-(3-Bromo-5-isobutoxyphenyl)-6-methylpyrimidine-2,4-diamine]",4.4
13,"Cc1cc(Nc2cc(S(C)(=O)=O)cc(S(C)(=O)=O)c2)nc(N)n1 [Compound 45, N^4-(3,5-Bis(methylsulfonyl)phenyl)-6-methylpyrimidine-2,4-diamine]",> 100
14,"Cc1cc(Nc2cc(C(F)(F)F)cc(C(F)(F)F)c2)nc(N)n1 [Compound 46, N^4-(3,5-Bis(trifluoromethyl)phenyl)-6-methylpyrimidine-2,4-diamine]",14
15,"COc1cc(Nc2cc(C)nc(N)n2)cc(OC)c1 [Compound 47, N^4-(3,5-Dimethoxyphenyl)-6-methylpyrimidine-2,4-diamine]",41
16,"Cc1cc(Nc2cc(C(=O)O)cc(C(=O)O)c2)nc(N)n1 [Compound 48, 5-((2-Amino-6-methylpyrimidin-4-yl)amino)isophthalic acid]",> 100
17,"COC(=O)c1cc(Nc2cc(C)nc(N)n2)cc(C(=O)OC)c1 [Compound 49, Dimethyl 5-((2-amino-6-methylpyrimidin-4-yl)amino)isophthalate]",42
18,"Cc1cc(Nc2cc(-c3ccccc3)cc(-c3ccccc3)c2)nc(N)n1 [Compound 50, N^4-([1,1′:3′,1″-Terphenyl]-5′-yl)-6-methylpyrimidine-2,4-diamine]",1.5
19,"Cc1cc(Nc2cc(C(=O)Nc3cc(Cl)cc(Cl)c3)cc(C(=O)Nc3cc(Cl)cc(Cl)c3)c2)nc(N)n1 [Compound 51, 5-((2-Amino-6-methylpyrimidin-4-yl)amino)-N^1,N^3-bis(3,5-dichlorophenyl)isophthalamide]",2
20,"Cc1cc(C)cc(Nc2cc(C)nc(N)n2)c1 [Compound 52, N^4-(3,5-Dimethylphenyl)-6-methylpyrimidine-2,4-diamine]",19

row,Structure (SMILES),EC50 [µM]
1,"Cc1cc(Nc2cc(C(C)(C)C)cc(C(C)(C)C)c2)nc(N)n1 [Compound 53, N^4-(3,5-Di-tert-butylphenyl)-6-methylpyrimidine-2,4-diamine]",4.1
2,"Cc1cc(Nc2cccc(S(F)(F)(F)(F)F)c2)nc(N)n1 [Compound 54, 6-Methyl-N^4-(3-(pentafluoro-λ^6-sulfaneyl)phenyl)pyrimidine-2,4-diamine]",14
3,"Cc1cc(Nc2cccc(Cl)c2)nc(N)n1 [Compound 55, N^4-(3-Chlorophenyl)-6-methylpyrimidine-2,4-diamine]",42
4,Cc1cc(Nc2cccc(Br)c2)nc(N)n1 [Compound 56],22
5,Cc1cc(Nc2cccc(F)c2)nc(N)n1 [Compound 57],> 25
6,CSc1cccc(Nc2cc(C)nc(N)n2)c1 [Compound 58],> 25
7,Cc1cc(Nc2ccccc2)nc(N)n1 [Compound 59],> 25
8,"Cc1cc(Nc2cc(F)cc(F)c2)nc(N)n1 [Compound 60, N^4-(3,5-Difluorophenyl)-6-methylpyrimidine-2,4-diamine]",70
9,"Cc1cc(Nc2cc(F)cc(Cl)c2)nc(N)n1 [Compound 61, N^4-(3-Chloro-5-fluorophenyl)-6-methylpyrimidine-2,4-diamine]",17
10,"Cc1cc(Nc2cc(Br)c(F)c(Br)c2)nc(N)n1 [Compound 63, N^4-(3,5-Dibromo-4-fluorophenyl)-6-methylpyrimidine-2,4-diamine]",4.6
11,"Cc1cc(Nc2cc(Cl)c(Cl)c(Cl)c2)nc(N)n1 [Compound 64, 6-Methyl-N^4-(3,4,5-trichlorophenyl)pyrimidine-2,4-diamine]",4.5
12,"Cc1cc(Nc2cc(Cl)c(C)c(Cl)c2)nc(N)n1 [Compound 65, N^4-(3,5-Dichloro-4-methylphenyl)-6-methylpyrimidine-2,4-diamine]",4.4
13,"Cc1cc(Nc2cc(Cl)c(Oc3ccccc3)c(Cl)c2)nc(N)n1 [Compound 66, N^4-(3,5-Dichloro-4-phenoxyphenyl)-6-methylpyrimidine-2,4-diamine]",1.1
14,"Cc1cc(Nc2cc(Cl)c(O)c(Cl)c2)nc(N)n1 [Compound 67, 4-((2-Amino-6-methylpyrimidin-4-yl)amino)-2,6-dichlorophenol]",13
15,"Cc1cc(Nc2cc(Cl)c(OC(F)F)c(Cl)c2)nc(N)n1 [Compound 68, N^4-(3,5-Dichloro-4-(difluoromethoxy)phenyl)-6-methylpyrimidine-2,4-diamine]",4.5
16,"Cc1cc(Nc2cc(Cl)c(N(C)C)c(Cl)c2)nc(N)n1 [Compound 69, N^4-(3,5-Dichloro-4-(dimethylamino)phenyl)-6-methylpyrimidine-2,4-diamine]",5.8
17,"Cc1cc(Nc2cc(Cl)c(N3CCOCC3)c(Cl)c2)nc(N)n1 [Compound 70, N^4-(3,5-Dichloro-4-morpholinophenyl)-6-methylpyrimidine-2,4-diamine]",18
18,"Cc1cc(Nc2cc(Cl)c(N3CCCCC3)c(Cl)c2)nc(N)n1 [Compound 71, N^4-(3,5-Dichloro-4-(piperidin-1-yl)phenyl)-6-methylpyrimidine-2,4-diamine]",2.1
